Legend:
[1] = target: Methionine aminopeptidase 2 (Homo sapiens, UniProt P50579); assay: biochemical
Description: Inhibition of human recombinant GST-6XHis-tagged full-length cytosolic METAP2 expressed in cabbage looper BTI-TN-5B1-4 cells using Met-Pro-p-nitroanilide as substrate after 20 mins by spectrophotometric analysis in presence of Bacillus coagulans GST-tagged proline iminopeptidase

Homo sapiens = species: Homo sapiens; assay: Selectivity ratio of EC50 for human recombinant GST-6XHis-tagged full-length cytosolic METAP2 to EC50 for human recombinant full-length cytosolic METAP1
[2] = target: Methionine aminopeptidase 1 (Homo sapiens, UniProt P53582)
Description: Inhibition of human recombinant full-length cytosolic METAP1 expressed in Escherichia coli BL21(DE3) using Met-Pro-p-nitroanilide as substrate after 20 mins by spectrophotometric analysis in presence of Bacillus coagulans GST-tagged proline iminopeptidase

[3] = target: T1, Proline iminopeptidase (Bacillus coagulans) (UniProt P46541); assay: Inhibition of Bacillus coagulans GST-tagged proline iminopeptidase using Pro-p-nitroanilide as substrate at 100 uM relative to control; settings: Heyndrickxia coagulans
T1 sequence (whole entry): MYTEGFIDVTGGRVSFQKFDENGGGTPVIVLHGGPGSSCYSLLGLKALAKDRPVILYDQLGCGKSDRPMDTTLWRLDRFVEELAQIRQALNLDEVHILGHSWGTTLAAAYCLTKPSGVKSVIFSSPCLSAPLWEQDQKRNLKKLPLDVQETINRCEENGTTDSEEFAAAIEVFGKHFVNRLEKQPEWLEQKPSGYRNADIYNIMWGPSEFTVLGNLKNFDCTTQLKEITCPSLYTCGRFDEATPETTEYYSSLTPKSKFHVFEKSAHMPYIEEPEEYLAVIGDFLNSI

[4] = target: T1, Proline iminopeptidase (Bacillus coagulans); assay: Inhibition of Bacillus coagulans GST-tagged proline iminopeptidase using Pro-p-nitroanilide as substrate at 10 uM relative to control; settings: Heyndrickxia coagulans

Chain of Methionine aminopeptidase 2 (P50579 whole entry): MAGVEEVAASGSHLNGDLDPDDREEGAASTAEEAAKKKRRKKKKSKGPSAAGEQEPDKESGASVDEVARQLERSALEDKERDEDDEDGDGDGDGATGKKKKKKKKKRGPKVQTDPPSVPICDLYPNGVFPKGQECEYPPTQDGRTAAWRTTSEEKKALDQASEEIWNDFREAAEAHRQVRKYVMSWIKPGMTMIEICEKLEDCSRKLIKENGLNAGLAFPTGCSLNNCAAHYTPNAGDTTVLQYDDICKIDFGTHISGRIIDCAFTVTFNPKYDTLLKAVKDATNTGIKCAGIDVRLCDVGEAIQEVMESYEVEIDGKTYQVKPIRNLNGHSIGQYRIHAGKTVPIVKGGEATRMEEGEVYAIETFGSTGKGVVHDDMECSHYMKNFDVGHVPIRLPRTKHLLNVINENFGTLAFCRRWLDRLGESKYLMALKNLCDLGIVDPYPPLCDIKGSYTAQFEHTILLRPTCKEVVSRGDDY

inhibition [3] [%] | inhibition [4] [%] | Structure (SMILES) | IC50 [1] [nM] | Ratio EC50 (Homo sapiens) | IC50 [2] [nM]
– | – | Cc1nc(-c2ccccn2)nc(SCc2ccccc2)c1Cl | > 100000 | – | –
– | – | Cc1nc(-c2ccc(Cl)cn2)nc(NC[C@H](NCc2ccccc2)c2ccccc2)c1Cl | 31000 | 141 | 220
– | – | Cc1nc(-c2ccccn2)nc(NC[C@H](NC(=O)CCCN2CCNCC2)c2ccccc2)c1Cl | > 300000 | – | –
– | – | Cc1nc(-c2ccc(Cl)cn2)nc(NCC(CCCCCc2ccccc2)c2ccccc2)c1Cl (racemic) | > 200000 | > 87 | 2300
– | – | Cc1nc(-c2ccc([N+](=O)[O-])cn2)nc(NC[C@H](NC(=O)CCCN2CCNCC2)c2ccccc2)c1Cl | 14000 | 47 | 300
– | – | Cc1nc(-c2ccc(Cl)cn2)nc(NCC(CCCCc2ccccc2)c2ccccc2)c1Cl (configuration not stated) | > 200000 | > 1000 | 200
– | – | Cc1nc(-c2ccccn2)nc(NCCNc2ccc(C(F)(F)F)cn2)c1Cl | > 100000 | – | –
– | – | Cc1nc(-c2cccnc2)nc(NCc2ccccc2)c1Cl | > 100000 | – | > 100000
– | – | Cc1nc(-c2ccc(Cl)cn2)nc(NC[C@H](NCCCCc2ccco2)c2ccccc2)c1Cl | > 300000 | > 909 | 330
– | – | COc1ccnc(-c2nc(C)c(Cl)c(NC[C@H](NC(=O)CCCN3CCNCC3)c3ccccc3)n2)c1 | 14000 | 26 | 530
– | – | Cc1nc(-c2cc(Cl)ccn2)nc(NC[C@H](NC(=O)CCCN2CCNCC2)c2ccccc2)c1Cl | > 300000 | > 411 | 730
– | – | Cc1nc(-c2ncccc2Cl)nc(NC[C@H](NC(=O)CCCN2CCNCC2)c2ccccc2)c1Cl | > 300000 | > 39 | 7600
– | – | Cc1nc(-c2cccc(Cl)n2)nc(NC[C@H](NC(=O)CCCN2CCNCC2)c2ccccc2)c1Cl | > 30000 | > 4.2 | 7200
– | – | Cc1nc(-c2ccccn2)nc(NC[C@H](NCCCN2CCN(CCO)CC2)c2ccccc2)c1Cl | 101000 | – | –
– | – | Cc1nc(-c2ccc(Br)cn2)nc(NC[C@H](NC(=O)CCCN2CCNCC2)c2ccccc2)c1Cl | 53000 | 161 | 330
– | – | Cc1nc(-c2ccc(Cl)cn2)nc(NC[C@H](NCCCCc2ccccc2)c2ccccc2)c1Cl | > 100000 | – | –
– | – | Cc1nc(-c2ccccn2)nc(NC2CCN(c3ncc(C(F)(F)F)cc3Cl)CC2)c1Cl | > 100000 | – | –
– | – | Cc1nc(-c2ccccn2)nc(SCCc2ccccc2)c1Cl | > 100000 | – | –
– | – | Cc1nc(-c2ccc(Cl)cn2)nc(NC[C@H](NCCCCCCc2ccccc2)c2ccccc2)c1Cl | > 30000 | > 42 | 710
– | – | Cc1nc(-c2ccc(N(C)C)cn2)nc(NC[C@H](NC(=O)CCCN2CCNCC2)c2ccccc2)c1Cl | 1700 | 12 | 140
– | – | Cc1nc(-c2ccc(N3CCCC3)cn2)nc(NC[C@H](NC(=O)CCCN2CCNCC2)c2ccccc2)c1Cl | 1100 | 1.1 | 1700
– | – | Cc1nc(-c2ccc(Cl)cn2)nc(NC[C@H](NCCCCc2ccc(O)cc2)c2ccccc2)c1Cl | > 300000 | > 714 | 420
– | – | Cc1nc(-c2ccc(Cl)cn2)nc(NC[C@H](NCCCCCc2ccccc2)c2ccccc2)c1Cl | > 100000 | > 138 | 780
– | – | Cc1nc(-c2ccccn2)nc(NCCc2ccccc2)c1C | > 100000 | – | > 100000
– | – | Cc1nc(-c2ccc(Cl)cn2)nc(NC[C@H](NC(=O)Cc2ccccc2)c2ccccc2)c1Cl | 28000 | 40 | 700
– | – | Cc1nc(-c2ccc(Cl)cn2)nc(NC[C@H](NCCCc2ccccc2)c2ccccc2)c1Cl | > 300000 | > 1150 | 260

inhibition [3] [%] | inhibition [4] [%] | Structure (SMILES) | IC50 [1] [nM] | Ratio EC50 (Homo sapiens) | IC50 [2] [nM]
– | – | Cc1nc(-c2ccc(Cl)cn2)nc(NC[C@H](NC(=O)CCCCc2ccccc2)c2ccccc2)c1Cl | > 30000 | > 23 | 1300
– | – | Cc1nc(-c2ccc(Cl)cn2)nc(NC[C@H](NCCCCc2cccs2)c2ccccc2)c1Cl | > 300000 | > 789 | 380
– | – | Cc1nc(-c2ccc(Cl)cn2)nc(NC[C@H](NCCCCc2ccc(Cl)cc2)c2ccccc2)c1Cl | > 300000 | > 526 | 570
– | – | Cc1nc(-c2ccc(Cl)cn2)nc(NC[C@H](NCCCCn2cccc2)c2ccccc2)c1Cl | > 100000 | > 200 | 500
– | – | Cc1nc(-c2ccc(Cl)cn2)nc(NCC(CCc2ccccc2)c2ccccc2)c1Cl (configuration not stated) | > 200000 | > 3180 | 63
– | – | COc1cccc(-c2nc(C)c(Cl)c(NC[C@H](NC(=O)CCCN3CCNCC3)c3ccccc3)n2)n1 | > 30000 | > 1.5 | 20000
– | – | Cc1cc(NCCc2ccccc2)nc(-c2ccccn2)n1 | > 100000 | – | > 100000
– | – | Cc1nc(-c2ccc(Cl)cn2)nc(NC[C@H](NCCCCc2ccc3ccccc3n2)c2ccccc2)c1Cl | > 300000 | > 435 | 690
– | – | Cc1nc(-c2ccc(Cl)cn2)nc(NC[C@H](NC(=O)CCc2ccccc2)c2ccccc2)c1Cl | > 30000 | > 323 | 93
97 | 27 | Cc1nc(-c2ccc(Cl)cn2)nc(NC[C@H](NCCCCc2ccc(C#N)cc2)c2ccccc2)c1Cl | 16000 | 31 | 520
– | – | Cc1nc(-c2ccc(F)cn2)nc(NC[C@H](NC(=O)CCCN2CCNCC2)c2ccccc2)c1Cl | 1200 | 24 | 49
– | – | Cc1nc(-c2ccc(Cl)cn2)nc(NC[C@H](NC(=O)CCCc2ccccc2)c2ccccc2)c1Cl | > 30000 | > 188 | 160
– | – | Cc1nc(-c2ccccn2)nc(NC[C@H](NCCCN2CCNCC2)c2ccccc2)c1Cl | 108000 | – | –
– | – | Cc1nc(-c2ccccn2)nc(NCCNc2cccc(C(F)(F)F)n2)c1Cl | > 100000 | – | –
– | – | COc1cccnc1-c1nc(C)c(Cl)c(NC[C@H](NC(=O)CCCN2CCNCC2)c2ccccc2)n1 | > 300000 | > 120 | 2500
– | – | CCCOc1ccc(CCCCN[C@@H](CNc2nc(-c3ccc(Cl)cn3)nc(C)c2Cl)c2ccccc2)cc1 | > 300000 | > 250 | 1200
– | – | Cc1nc(-c2ccc(Cl)cn2)nc(NCC(CCCc2ccccc2)c2ccccc2)c1Cl (configuration not stated) | > 200000 | > 1250 | 160
– | – | Cc1nc(-c2ccc(Cl)cn2)nc(NC[C@H](NCCc2ccccc2)c2ccccc2)c1Cl | > 100000 | > 384 | 260
– | – | Cc1nc(-c2ccccn2)nc(NC[C@H](NC(=O)CCN2CCN(CCO)CC2)c2ccccc2)c1Cl | 114000 | – | –
– | – | Cc1nc(-c2ccc(Cl)cn2)nc(NC[C@H](NC(=O)CCCN2CCNCC2)c2ccccc2)c1Cl | 1200 | 33 | 36
– | – | Cc1nc(-c2ccccn2)nc(N2CCN(CCO)CC2)c1Cl | > 100000 | – | –
– | – | Cc1nc(-c2ccc(Cl)cn2)nc(NC[C@H](NC(=O)CCCCCc2ccccc2)c2ccccc2)c1Cl | > 30000 | > 45 | 670
– | – | Cc1nc(-c2ccccn2)nc(NC[C@H](NC(=O)CCCN2CCN(CCO)CC2)c2ccccc2)c1Cl | > 300000 | – | –
– | – | COc1ccc(-c2nc(C)c(Cl)c(NC[C@H](NC(=O)CCCN3CCNCC3)c3ccccc3)n2)nc1 | > 300000 | > 1110 | 270
– | – | Cc1nc(-c2ccccn2)nc(NC[C@H](NCCCCN2CCNCC2)c2ccccc2)c1Cl | 188000 | – | –
– | – | Cc1nc(-c2ccccn2)nc(NC[C@H](NCCCCN2CCN(CCO)CC2)c2ccccc2)c1Cl | 197000 | – | –

From ChEMBL document CHEMBL2390953, “Pyridinylpyrimidines selectively inhibit human methionine aminopeptidase-1” (Bioorg Med Chem, 2013)
